Assay results: patent US20240226079A1, “TOPICAL ANAESTHETIC COMPOSITION HAVING IMPROVED VASOCONSTRICTOR STABILITY” (Animal Ethics Pty Ltd, priority 2021, published 2024)
Read-outs that look alike come from different tables or passages of the source.

Test: Forced degradation studies of the drug substances
Source text: Table 4 summarises information on the relative chemical stability of the drug substances, obtained in forced degradation studies.

| Compound | % Degradation | % Degradation (Acid, 8 Weeks) | % Degradation (Base, 8 Weeks) | % Degradation (Heat, 8 Weeks) | % Degradation (Light, 51 × 10^6 lux hrs) | % Degradation (Oxidation 1, 8 Weeks) | % Degradation (Oxidation 2, 8 Weeks) | % Degradation (Reduction, 8 Weeks) |
| --- | --- | --- | --- | --- | --- | --- | --- | --- |
| CNCC(O)c1ccc(O)c(O)c1 (stereo not shown) [Adrenaline] | 51.6% |  |  |  |  |  |  |  |
| CCCCN1CCCCC1C(=O)Nc1c(C)cccc1C (stereo not shown) [Bupivacaine] | 11.2% |  |  |  |  |  |  |  |
| CCN(CC)CC(=O)Nc1c(C)cccc1C [Lignocaine] |  | −0.3% | 1.1% | 1.1% | 9.9% | −0.2% | 3.3% | −0.3% |
| Cetrimide |  | 0.4% | 0.9% | 0.5% | 8.9% | −0.2% | 1.0% | 8.4% |
